US20260055060A1, “USE OF (ISOINDOLIN-2-YL)(4-HYDROXY-3-(ISOINDOLINE-2-CARBONYL)PHENYL)METHANONES IN THE TREATMENT OF TUMOR NECROSIS FACTOR RECEPTOR-ASSOCIATED PROTEIN 1 DYSFUNCTION” (UNIVERSITY OF NOTRE DAME DU LAC, priority 2022, published 2026)
Entries after “also recorded” stand apart in the source; their conditions may differ.

Assays:
HeLa cells [1] = assay: TMRM staining for mitochondrial membrane potential; assay type: cell-based; details: 6 h treatment, 25 μM and 50 μM
[2] = test system: cytosolic Hsp90 clients, Akt and Cdk4, Hsp70; assay: Western blot for cytosolic Hsp90 clients and Hsp70 induction; assay type: cell-based; details: HeLa and 22Rv1 cells, 6 h treatment
HeLa cells [3] = assay: Seahorse mitochondrial function (oligomycin, FCCP, rot/AA injections), HeLa; assay type: cell-based; details: 6 hr pretreatment
22RV1 cells [4] = assay: Seahorse mitochondrial function (oligomycin, FCCP, rot/AA injections), 22Rv1; assay type: cell-based; details: 6 hr pretreatment
HeLa cells [5] = assay: Seahorse XFe oxygen consumption rate, HeLa; assay type: cell-based; details: 6 h treatment, significant at 25 μM and 50 μM
HeLa cells [6] = assay: Cellular ATP production rate (glycolysis vs mitochondrial); assay type: cell-based; details: oligomycin and rot/AA injections
22RV1 cells [7] = assay: Seahorse XFe oxygen consumption rate, 22Rv1; assay type: cell-based; details: 6 h treatment, significant at 25 μM and 50 μM
[8] = test system: TRAP1-dependent client proteins NDUFS1, glutaminase-1, and Sirt3; assay: Western blot for degradation of TRAP1 client proteins; assay type: cell-based; details: for degradation of TRAP1-dependent client proteins NDUFS1, glutaminase-1, Sirt3: HeLa and 22Rv1 cells, 6 h treatment
[9] = test system: TRAP1-dependent client proteins NDUFS1, glutaminase-1, and Sirt3; details: literature report; cited from earlier work
Hsp90β = target: T1, Hsp90β (Homo sapiens, UniProt P08238); assay: Fluorescence polarization assay (FITC-GDA tracer displacement), Hsp90β; assay type: binding; details: Table 1; concentration at which tracer 50% displaced, reported as Kd
T1 construct: 50 μL of assay buffer containing 10 nM of Hsp90, Hsp90a, Grp94, or Trap1 were added to each well

HeLa cells [10] = assay: Mitochondrial fuel oxidation with BPTES, UK5099 and etomoxir; assay type: cell-based

T1 sequence (P08238 whole entry): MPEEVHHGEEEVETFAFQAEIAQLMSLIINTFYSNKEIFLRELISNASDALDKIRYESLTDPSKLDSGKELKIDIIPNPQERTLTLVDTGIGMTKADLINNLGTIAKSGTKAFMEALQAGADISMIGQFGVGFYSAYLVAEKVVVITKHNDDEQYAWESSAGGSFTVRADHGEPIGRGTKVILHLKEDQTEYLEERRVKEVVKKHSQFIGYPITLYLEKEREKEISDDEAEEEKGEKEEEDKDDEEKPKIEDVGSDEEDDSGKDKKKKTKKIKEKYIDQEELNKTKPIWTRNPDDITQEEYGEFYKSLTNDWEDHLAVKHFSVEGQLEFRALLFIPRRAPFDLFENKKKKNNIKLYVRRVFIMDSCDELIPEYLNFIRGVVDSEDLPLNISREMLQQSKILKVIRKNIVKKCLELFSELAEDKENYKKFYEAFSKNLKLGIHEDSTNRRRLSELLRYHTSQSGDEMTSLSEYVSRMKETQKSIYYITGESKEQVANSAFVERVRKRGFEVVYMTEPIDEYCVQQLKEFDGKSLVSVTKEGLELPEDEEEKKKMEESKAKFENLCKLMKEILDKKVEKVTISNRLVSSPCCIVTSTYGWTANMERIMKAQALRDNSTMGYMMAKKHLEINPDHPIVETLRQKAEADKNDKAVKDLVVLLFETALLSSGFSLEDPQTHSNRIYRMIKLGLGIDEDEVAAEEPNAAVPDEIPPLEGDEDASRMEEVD

Kd (Hsp90β) [nM] | Compound | TMRM fluorescence / mitochondrial membrane potential (HeLa cells [1]) | degradation of cytosolic Hsp90 clients Akt and Cdk4, induction of Hsp70 [2] | proton leak, maximal respiration, non-mitochondrial O2 consumption, spare respiratory capacity (HeLa cells [3]) | proton leak, maximal respiration, non-mitochondrial O2 consumption, spare respiratory capacity (22RV1 cells [4]) | oxygen consumption rate / OXPHOS (HeLa cells [5]) | cellular ATP production via oxidative phosphorylation or glycolysis (HeLa cells [6]) | oxygen consumption rate / OXPHOS (22RV1 cells [7]) | degradation of TRAP1-dependent client proteins NDUFS1, glutaminase-1, Sirt3 [8] | degradation of TRAP1 client proteins (reported by Yoon, N. G. et al.) [9] | mitochondrial glutamine, fatty acid, and glucose oxidation (HeLa cells [10]; 6 hr treatment, 32 at 50 μM) | response of basal OCR to BPTES, UK5099, etomoxir (HeLa cells [10]; HeLa cells, 2 hr incubation, 50 μM) | expression of TRAP1 clients NDUFS1, glutaminase-1, Sirt3 ([8]; HeLa cells, 2 hr treatment, up to 50 μM)
– | gamitrinib [reference compound] | marked decrease in TMRM fluorescence | pan-Hsp90 inhibition | decreased | decreased | – | – | – | – | – | – | – | –
– | COc1cccc2c1CN(C(=O)c1ccc(O)c(C(=O)N3Cc4ccc(OCCC[P+](c5ccccc5)(c5ccccc5)c5ccccc5)cc4C3)c1)C2 [Compound 36, (3-((2-(2-Hydroxy-5-(4-methoxyisoindoline-2-carbonyl)benzoyl)isoindolin-5-yl)oxy)propyl)triphenylphosphonium hexafluorophosphate(V)] | marked decrease in TMRM fluorescence; also recorded: disrupt the mitochondrial membrane potential | without inducing the degradation | decreased | decreased | statistically significant reduction of oxygen consumption; also recorded: significant dose-dependent decrease in OXPHOS; also recorded: inhibit OXPHOS | alter cellular metabolism towards glycolysis | significant dose-dependent decrease in OXPHOS; also recorded: statistically significant reduction of oxygen consumption; also recorded: inhibit OXPHOS | dose-dependent and selective degradation | – | – | – | –
– | COC1=C(OC)C(=O)C(CCCCCCCCCC[P+](c2ccccc2)(c2ccccc2)c2ccccc2)=C(C)C1=O [MitoQ, reference compound] | marked decrease in TMRM fluorescence | – | decreased | decreased | – | – | – | – | induce the degradation of these clients | – | – | –
1000 ± 50 | O=C(c1cc(C(=O)N2Cc3ccccc3C2)c(O)cc1O)N1Cc2ccccc2C1 [Compound 4] | – | – | – | – | – | – | – | – | – | – | – | –
– | O=C(c1ccc(O)c(C(=O)N2Cc3ccc(OCCC[P+](c4ccccc4)(c4ccccc4)c4ccccc4)cc3C2)c1)N1Cc2cccc(F)c2C1 [Compound 35, (3-((2-(5-(4-Fluoroisoindoline-2-carbonyl)-2-hydroxybenzoyl)isoindolin-5-yl)oxy)propyl)triphenylphosphonium hexafluorophosphate(V)] | marked decrease in TMRM fluorescence; also recorded: disrupt the mitochondrial membrane potential | without inducing the degradation | decreased | decreased | statistically significant reduction of oxygen consumption; also recorded: significant dose-dependent decrease in OXPHOS; also recorded: inhibit OXPHOS | alter cellular metabolism towards glycolysis | significant dose-dependent decrease in OXPHOS; also recorded: statistically significant reduction of oxygen consumption; also recorded: inhibit OXPHOS | dose-dependent and selective degradation | – | reduced OCR (oxygen consumption rate) and prevented measurement | unresponsive to BPTES, UK5099, and etomoxir | dose-dependently decreased
